Measurements taken from US9115213B2, “Phenotypic reversion of pancreatic carcinoma cells” (The Research Foundation of State University of New York, priority 2004, dated 2015).
“Also recorded” adds a separate entry of the source. Read-outs that look alike come from different tables or passages of the source. Where a SMILES comes first, the peptide text is derived from it.

Assays:
[1] = target: T1, oncogenic ras-p21 (Val 12-p21) (Homo sapiens, UniProt P01112, G12V); details: cited from earlier work
T1 construct: host or cells: microinjected into Xenopus laevis oocytes

[2] = test system: insulin-activated wild-type ras-p21; details: cited from earlier work
[3] = test system: BMRPA1 cells; details: cited from earlier work
[4] = test system: TUC-3 cells; details: cited from earlier work
[5] = test system: BMRPA1 pancreatic acinar cells; test: Peptide incubation with normal BMRPA1 cells
Text: As described in several prior publications (16, 17, 20), we have developed two cell lines, one a normal contact-inhibited line of rat pancreatic acinar cells, called BMRPA1.430 (BMRPA1) cells and the other a pancreatic acinar carcinoma obtained by transfection of BMRPA1 cells with a plasmid containing an activated human K-ras oncogene [single base mutation at codon 12, valine substitution for the wild type glycine in the ras protein (K-ras^val12); a kind gift of Dr. M. Perucho (CIBR, La Jolla, Calif.)] and a neomycin resistance gene. […] In addition, they phenotypically maintain differentiated cell functions such as continued enzyme production and activation of zymogen secretion by secretagogue.
Approximately 300,000 cells (either BMRPA1 or TUC-3) were plated in each of six wells and were allowed to adhere overnight. In one set of experiments, the initial media consisted of DMEM with 10% fetal bovine serum that contained no peptide. In another set of experiments, the initial media contained peptide. In the first set, media containing peptide was added after 24 hours; in both sets, after the first 24 hours, the media was changed every 24 hours and always contained peptide at a particular concentration. Cells were observed daily for three weeks for changes in morphology and growth characteristics. Peptides were present at concentrations of […].

[6] = test system: ras-transformed pancreatic cancer (TUC-3) cells; test: Peptide incubation with TUC-3 cells (morphology, phenotypic reversion); type: cell-based, rat
[7] = test system: TUC-3 cells; test: Explantation of peptide-treated, morphologically revertant TUC-3 cells into nude mice; type: in vivo, Nu/Nu mice; details: for Tumor Nodule Size: 5 × 10^6 TUC-3 cells treated 2 weeks with peptide, posterior cervical fat pad, 5 nude mice, mean ± SD
Experimental: To evaluate cells that appeared to be morphologically revertant to the normal phenotype, approximately 5×10^6 morphologically revertant TUC-3 cells treated for two weeks with 100 μg/ml of PNC-2 were injected subcutaneously into the posterior cervical fatpad of each of five Nu/Nu mice. Similarly, 5×10^6 untreated TUC-3 cells were explanted into another five Nu/Nu mice. Daily observations, over a 120 day period, were made on both sets of mice to determine if tumor nodules appeared at the site of injection.

[8] = target: T2, Val 12-Ha-ras-p21 (Homo sapiens, UniProt P01112, G12V); test: Co-immunoprecipitation of raf, MEK, JNK and MAPK with injected Val 12-Ha-ras-p21 in oocytes; type: cell-based, Xenopus laevis; details: peptide co-injected with Val 12-p21 into oocytes; anti-Ha-ras immunoprecipitate (FIG. 4A)
T2 construct: host or cells: protein microinjected into Xenopus laevis oocytes
Experimental: In these experiments, the Ha-ras form of Val 12-p21 was injected into oocytes (100 ug/ml, 50 nl per oocyte) either alone or together with inhibitory p21 peptide (residues 96-110 shown in this figure). […] The lysate was centrifuged for 15 min at 17000×g at 4° C., and the supernatant was either used directly. The lysates were then subjected to immunoprecipitation using an anti-Ha-ras antibody (CalBiochem). In this procedure, cell lysate was first pre-cleared by incubation with 50 ul of protein A beads for 1 hr at room temperature, followed by centrifugation. Anti-Ha-ras antibody was added to the lysate such that 0.1 ug antibody was added per 250 ug of pre-cleared lysate protein. A volume of 25 μl protein A agarose beads (Sigma) was then added to the incubation mixture, and the resulting mixture was incubated overnight at 4° C., after which the mixture was centrifuged, and the immunoprecipitate was washed three times with 0.5 ml of kinase buffer as described above. Immunoprecipitates were subjected to SDS-PAGE as described above in the preceding paragraph and blotted with anti-Ha-ras (1:2000 with 0.25% BSA), anti-raf (CalBiochem, San Diego, Calif.), diluted 1:2000 with 0.25% BSA, anti-JNK polyclonal antibody (1:2000), anti-MEK (CalBiochem) and anti-MAPK, diluted 1:2000 with 0.25% BSA. […]

[9] = target: T1, oncogenic ras-p21 (Val 12-p21); test: Val 12-p21-induced oocyte maturation; type: cell-based, Xenopus laevis; details: peptide injected together with Val 12-p21
[10] = target: Val 12-p21-JNK interaction (Homo sapiens, UniProt P01112, G12V); details: cited from earlier work

Molecule: CO[C@@H]1[C@H](N(C)C(=O)c2ccccc2)C[C@H]2O[C@]1(C)n1c3ccccc3c3c4c(c5c6ccccc6n2c5c31)C(=O)NC4 [CGP 41 251]
- oncogenic ras-p21-induced oocyte maturation / mitogenic signaling in oocytes [1]: blocks oncogenic ras-p21-induced oocyte maturation
- insulin-activated wild-type ras-p21-induced oocyte maturation / signaling [2]: much less effect
- cytotoxicity to BMRPA1 cells [3]: cytotoxic to BMRPA1 cells
- effect on TUC-3 cells [4]: induces both necrosis and phenotypic reversion of TUC-3 cells
- growth of revertant TUC-3 cells in soft agar [4]: fail to grow in soft agar

Molecule: CC[C@H](C)[C@H](NC(=O)[C@@H](NC(=O)[C@@H](NC(=O)[C@H](CCC(N)=O)NC(=O)[C@H](CCCCN)NC(=O)[C@H](CCCNC(=N)N)NC(=O)[C@H](Cc1ccc(O)cc1)NC(=O)[C@H](CO)NC(=O)[C@H](CC(=O)O)NC(=O)[C@H](CCC(=O)O)NC(=O)[C@@H](NC(=O)[C@@H](N)[C@@H](C)O)[C@@H](C)CC)C(C)C)C(C)C)C(=O)N[C@@H](CC(=O)O)C(=O)O [PNC-7, TIEDSYRKQVVID] (H-TIEDSYRKQVVID-OH)
- cytotoxicity [5]: lack of cytotoxicity
- effect on growth of BMRPA1 cells [5]: no apparent effects

Molecule: CC[C@H](C)[C@H](NC(=O)[C@H](CCCNC(=N)N)NC(=O)[C@H](CCCCN)NC(=O)CNC(=O)[C@@H](NC(=O)[C@H](CO)NC(=O)[C@H](Cc1ccccc1)NC(=O)[C@@H]1CCCN1C(=O)[C@@H](N)CCSC)[C@@H](C)O)C(=O)N[C@@H](CCSC)C(=O)N[C@@H](CC(C)C)C(=O)NCC(=O)N[C@@H](CCC(=O)O)C(=O)N[C@@H](CCCCN)C(=O)N[C@@H](CCCCN)C(=O)N[C@@H](Cc1c[nH]c2ccccc12)C(=O)N[C@@H](CCCCN)C(=O)N[C@@H](CCSC)C(=O)N[C@@H](CCCNC(=N)N)C(=O)N[C@@H](CCCNC(=N)N)C(=O)N[C@@H](CC(N)=O)C(=O)N[C@@H](CCC(N)=O)C(=O)N[C@@H](Cc1ccccc1)C(=O)N[C@@H](Cc1c[nH]c2ccccc12)C(=O)N[C@H](C(=O)N[C@@H](CCCCN)C(=O)N[C@H](C(=O)N[C@@H](CCC(N)=O)C(=O)N[C@@H](CCCNC(=N)N)C(=O)NCC(=O)O)C(C)C)C(C)C [X13-leader, reference compound]
- effect on morphology of BMRPA1 cells [5]: no effect

Molecule: N[C@@H](Cc1ccc(O)cn1)C(=O)O [azatyrosine, reference compound]
- oncogenic ras-p21-induced oocyte maturation / mitogenic signaling in oocytes [1]: selectively blocks oncogenic ras-p21-induced oocyte maturation

Molecule: PNC-2-leader: ras-p21 residues 96-110 (SEQ ID NO:1) with penetratin leader KKWKMRRNQFWVKVQRG attached to its carboxyl terminal end (YREQIKRVKDSDVPKKWKMRRNQFWVKVQRG; amino acid residues 96-110 of oncogenic ras-p21 protein)
- lowest concentration at which the morphological reversion of TUC-3 cells was achieved [6]: 1 ug/ml
- phenotypic reversion of TUC-3 cells ([6]; 1 ug/ml, after two weeks): complete phenotypic reversion
- change in cell morphology of TUC-3 cells ([6]; 100 μg/ml, 1 week (FIG. 2A)): the cells grow into contact-inhibited monolayers and show distinct cell boundaries
- phenotypic reversion of TUC-3 cells ([6]; after one day of treatment (FIG. 2B: 100 μg/ml)): foci of acinar cellular differentiation appear
- tumor formation by morphologically revertant TUC-3 cells in nude mice ([7]; cells treated two weeks with 100 ug/ml peptide, explanted subcutaneously): fail to form tumors up to two months after reversion

Molecule: PNC-7-leader: ras-p21 residues 35-47 (TIEDSYRKQVVID, SEQ ID NO:2) with penetratin leader KKWKMRRNQFWVKVQRG attached to its carboxyl terminal end (TIEDSYRKQVVIDKKWKMRRNQFWVKVQRG; peptide amino acid residues 35-47 of oncogenic ras-p21 protein)
- phenotypic reversion of TUC-3 cells ([6]; 100 and 200 ug/ml (FIG. 2C: two weeks)): phenotypic reversion of the cells
- concentration at which complete reversion of TUC-3 cells was achieved ([6]; after two weeks of incubation): ≥ 100 µg/mL

Molecule: YREQIKRVKDSDDVP (YREQIKRVKDSDVP; amino acid residues 96-110 of oncogenic ras-p21 protein) [PNC-2]
- phenotypic reversion of TUC-3 cells [6]: 100%
- oncogenic ras-p21-induced oocyte maturation / mitogenic signaling in oocytes [1]: block mitogenic signaling by oncogenic ras-p21 in oocytes; also recorded: block oncogenic ras-induced oocyte maturation
- cytotoxicity [5]: lack of cytotoxicity
- effect on growth of BMRPA1 cells [5]: no apparent effects
- insulin-activated wild-type ras-p21-induced oocyte maturation / signaling [2]: little effect; also recorded: do not block insulin-activated wild type ras-induced maturation
- co-precipitation of raf, MEK, JNK and MAPK with Val 12-ras-p21 [8]: none of these proteins precipitated with Val 12-ras-p21 although there is still some binding to raf
- Tumor Nodule Size ([7]; day 0): 0.0 mm
- Tumor Nodule Size ([7]; day 7): 0.0 mm
- Tumor Nodule Size ([7]; day 14): 0.0 mm
- Tumor Nodule Size ([7]; day 21): 0.0 mm
- Tumor Nodule Size ([7]; day 28): 0.0 mm
- Tumor Nodule Size ([7]; day 42): 0.0 mm
- Tumor Nodule Size ([7]; day 56): 0.0 mm
- Val 12-p21-induced oocyte maturation [9]: strongly inhibits maturation
- interferes with / blocks Val 12-p21-JNK interaction [10]: blocks oncogenic ras-p21-JNK interactions; also recorded: blocks the interaction of Val 12-p21 with JNK; also recorded: interferes with Val 12-p21-JNK interaction
